Source: patent US20190262357A1, “PREVENTATIVE OR THERAPEUTIC AGENT FOR PULMONARY HY[…] CRUDE DRUG COMPONENT” (TOHOKU UNIVERSITY, priority 2016, published 2019)

System: pulmonary artery smooth muscle cells derived from patients with idiopathic pulmonary arterial hypertension (IPAH-PASMCs)
Assay: Suppression of proliferation of IPAH-PASMCs (MTT assay)
Assay type: cell-based, human
Settings: 0.001-5 μM celastrol, 48 hours
Protocol: The ability of celastrol to suppress the proliferation of pulmonary artery smooth muscle cells from patients with pulmonary hypertension (IPAH-PASMCs) was assessed. Specifically, first, on day −1, 66 μl each of pulmonary artery smooth muscle cells derived from patients with idiopathic pulmonary arterial hypertension (IPAH-PASMCs) suspended in a 10% FBS medium (DMEM supplemented with 10% FBS) were seeded in a 96-well plate at 50,000 cells/ml. 24 Hours after the cell seeding (the time point was defined as day 0), 33 μl each of 0.003 μM, 0.03 μM, 0.3 μM, 3 μM, and 15 μM solutions of celastrol in 10% FBS containing 1% DMSO were added to the wells so that the final concentrations were 0.001 μM, 0.01 μM, 0.1 μM, 1 μM, and 5 μM, respectively. As a control, 33 μl of 10% FBS containing 1% DMSO was added in place of celastrol. On day 0 (immediately before the addition of celastrol), a cell viability was confirmed by performing MTT assay using CellTiter 96 (trademark) AQueous One Solution Cell Proliferation Assay (promega). Further, on day 2, i.e., 48 hours after the addition of celastrol, the MTT assay was performed again to observe a change in cell viability. Thus, a cell proliferation-suppressing effect was assessed.

`CC1=C(O)C(=O)C=C2C1=CC=C1[C@@]2(C)CC[C@@]2(C)[C@@H]3C[C@](C)(C(=O)O)CC[C@]3(C)CC[C@]12C` [celastrol, (2R,4aS,6aS,12bR,14aS,14bR)-10-hydroxy-2,4a,6a,9,12b,14a-hexamethyl-11-oxo-1,2,3,4,4a,5,6,6a,11,12b,13,14,14a,14b-tetradecahydropicene-2-carboxylic acid] was tested, and the cell proliferation-suppressing effect was “a cell proliferation-suppressing effect on pulmonary artery smooth muscle cells derived from patients with idiopathic pulmonary arterial hypertension was obtained”.
